In general, IC50 refers to the concentration that inhibits the measured activity by half.

Here are results for 18 compounds from PMC7838034 (Acta Pharmaceutica Sinica. B, 2020).

Where two headings read alike, the source gives them in different places.

One experiment has as its target PARP1 (Homo sapiens, UniProt P09874). Kind of experiment: PARP1 inhibition assay. The format is biochemical. Conditions: tested in duplicate, average; for inhibition at 1 µM: read-out: Inhibition rate PARP1, 1 μmol/L; for inhibition at 10 µM: read-out: Inhibition rate PARP1, 10 μmol/L.
For experiment [1], the target named is recombinant BRD4(BD1 + BD2) (Homo sapiens, UniProt O60885). Description: BRD4 inhibition assay. The format is binding. Conditions: tested in duplicate, average; for inhibition at 1 µM: read-out: Inhibition rate BRD4, 1 μmol/L; for inhibition at 10 µM: read-out: Inhibition rate BRD4, 10 μmol/L.
In a further experiment the test system is MDA-MB-468 cells. Description: Cell viability assay. The format is cell-based, human. To be noted: read-out: Anti-proliferative activity (IC50).
Setting [2] is: MDA-MB-468 cells, cell viability assay for 24 h.

PARP1, sequence (P09874 whole entry): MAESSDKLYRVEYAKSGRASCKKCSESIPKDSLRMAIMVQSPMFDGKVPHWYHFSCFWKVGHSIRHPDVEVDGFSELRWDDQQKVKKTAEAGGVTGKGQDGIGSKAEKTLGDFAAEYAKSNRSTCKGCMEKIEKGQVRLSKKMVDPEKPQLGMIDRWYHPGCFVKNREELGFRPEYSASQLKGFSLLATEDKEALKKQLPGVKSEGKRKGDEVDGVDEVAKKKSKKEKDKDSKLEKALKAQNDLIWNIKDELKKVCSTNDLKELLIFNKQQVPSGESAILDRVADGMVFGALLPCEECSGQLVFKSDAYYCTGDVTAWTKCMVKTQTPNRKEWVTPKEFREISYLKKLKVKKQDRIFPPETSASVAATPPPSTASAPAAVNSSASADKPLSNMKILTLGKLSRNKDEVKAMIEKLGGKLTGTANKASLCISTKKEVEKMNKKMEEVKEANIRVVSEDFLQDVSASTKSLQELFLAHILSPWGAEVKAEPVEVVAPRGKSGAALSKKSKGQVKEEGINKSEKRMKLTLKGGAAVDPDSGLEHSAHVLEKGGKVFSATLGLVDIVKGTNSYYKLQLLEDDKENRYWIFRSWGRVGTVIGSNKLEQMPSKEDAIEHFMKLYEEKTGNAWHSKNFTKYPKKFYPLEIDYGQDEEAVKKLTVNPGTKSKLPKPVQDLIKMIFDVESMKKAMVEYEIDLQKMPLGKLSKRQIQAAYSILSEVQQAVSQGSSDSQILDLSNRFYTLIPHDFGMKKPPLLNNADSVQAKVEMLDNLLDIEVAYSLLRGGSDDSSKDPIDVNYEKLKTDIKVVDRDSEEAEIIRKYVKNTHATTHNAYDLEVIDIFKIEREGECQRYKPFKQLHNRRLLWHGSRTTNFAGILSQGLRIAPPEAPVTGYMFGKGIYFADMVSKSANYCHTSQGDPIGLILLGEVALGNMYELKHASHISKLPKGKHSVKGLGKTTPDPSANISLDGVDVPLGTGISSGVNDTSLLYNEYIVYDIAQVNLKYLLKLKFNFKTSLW

In the case of “2-(4-Chloro-2-(2-((3a,7a-dihydro-1H-benzo[d][1,2,3]triazol-1-yl)oxy)ethoxy)phenyl)-5,7-dimethoxyquinazolin-4(3H)-one [Compound 19r]”, the “Inhibition rate PARP1” value is recorded as 4% on PARP1 (1 μmol/L) and 6% on PARP1 (10 μmol/L). Also, the “Inhibition rate BRD4” value in experiment [1] (1 μmol/L) is reported as 17%; in experiment [1] (10 μmol/L) it was 77%. In the experiment with MDA-MB-468 cells (setting [2]), the IC50 was over 30 µM.

As to `COc1cc(OC)c2c(=O)[nH]c(-c3cc(C)c(OCCOc4ccccc4C(N)=O)c(C)c3)nc2c1` [Compound 19f, 2-(2-(4-(5,7-Dimethoxy-4-oxo-3,4-dihydroquinazolin-2-yl)-2,6-dimethylphenoxy)ethoxy)benzamide], on PARP1, the inhibition at 1 µM came out at 40% and the inhibition at 10 µM stood at 79%. Moreover, in experiment [1], the inhibition at 1 µM came out at 11% and the inhibition at 10 µM is 74%. Moreover, the half-inhibitory concentration (IC50) with MDA-MB-468 cells (Homo sapiens, MDA-MB-468, 24 h) came out at 8.4 ± 1.3 µM.

`COc1cc(OC)c2c(=O)[nH]c(-c3cc(Cl)ccc3OCCOc3ccccc3C(N)=O)nc2c1` [Compound 19a, 2-(2-(4-Chloro-2-(5,7-dimethoxy-4-oxo-3,4-dihydroquinazolin-2-yl)phenoxy)ethoxy)benzamide]: at PARP1, the inhibition at 1 µM was 30% and the inhibition at 10 µM was found to be 85%. In addition, in experiment [1], the inhibition at 1 µM is 31% and the inhibition at 10 µM was found to be 90%. In addition, in the experiment on MDA-MB-468 cells (Homo sapiens, MDA-MB-468, 24 h), the IC50 is 6 ± 0.9 µM.

As to `COc1cc(OC)c2c(=O)[nH]c(-c3cc(OC)c(OCCOn4nnc5ccccc54)c(OC)c3)nc2c1` [Compound 19j, 2-(4-(2-((1H-Benzo[d][1,2,3]triazol-1-yl)oxy)ethoxy)-3,5-dimethoxyphenyl)-5,7-dimethoxyquinazolin-4(3H)-one], on PARP1, the inhibition at 1 µM came to 6% and the inhibition at 10 µM was determined as 18%. In experiment [1], the inhibition at 1 µM is 12% and the inhibition at 10 µM was 64%. Moreover, the IC50 with MDA-MB-468 cells (Homo sapiens, MDA-MB-468, 24 h) is over 30 µM.

`COc1cc(OC)c2c(=O)[nH]c(-c3cc(C)c(OCCOc4ccc5cn[nH]c5c4)c(C)c3)nc2c1` [Compound 19m, 2-(4-(2-((1H-Indazol-6-yl)oxy)ethoxy)-3,5-dimethylphenyl)-5,7-dimethoxyquinazolin-4(3H)-one]: the inhibition at 1 µM at PARP1 worked out at 7%; in experiment [1] it was 15%. In addition, the inhibition at 10 µM on PARP1 worked out at 11%; in experiment [1], 46%. In addition, the IC50 in the experiment on MDA-MB-468 cells (Homo sapiens, MDA-MB-468, 24 h) was over 30 µM.

In the case of `COc1cc(OC)c2c(=O)[nH]c(-c3cc(C)c(OCCOn4nnc5ccccc54)c(C)c3)nc2c1` [Compound 19i, 2-(4-(2-((1H-Benzo[d][1,2,3]triazol-1-yl)oxy)ethoxy)-3,5-dimethylphenyl)-5,7-dimethoxyquinazolin-4(3H)-one], the inhibition at 1 µM on PARP1 was found to be 11%; in experiment [1], 18%. The inhibition at 10 µM on PARP1 came to 18%; in experiment [1] it was 61%. For the same compound, the half-inhibitory concentration (IC50) in the experiment with MDA-MB-468 cells (Homo sapiens, MDA-MB-468, 24 h) is over 30 µM.

Consider `COc1cc(OC)c2c(=O)[nH]c(-c3ccc(OCCOc4ccc5cn[nH]c5c4)cc3)nc2c1` [Compound 19o, 2-(4-(2-((1H-Indazol-6-yl)oxy)ethoxy)phenyl)-5,7-dimethoxyquinazolin-4(3H)-one], for which, at PARP1, the inhibition at 1 µM was 3% and the inhibition at 10 µM worked out at 13%. In experiment [1], the inhibition at 1 µM was 3% and the inhibition at 10 µM is 56%. The IC50 in the experiment on MDA-MB-468 cells (Homo sapiens, MDA-MB-468, 24 h) was over 30 µM.

Take `COc1cc(OC)c2c(=O)[nH]c(-c3ccc(OCCOn4nnc5ccccc54)c(Cl)c3)nc2c1` [Compound 19p, 2-(4-(2-((1H-Benzo[d][1,2,3]triazol-1-yl)oxy)ethoxy)-3-chlorophenyl)-5,7-dimethoxyquinazolin-4(3H)-one]: at PARP1, the inhibition at 1 µM worked out at 3% and the inhibition at 10 µM came to 6%. Besides, in experiment [1], the inhibition at 1 µM stood at 3% and the inhibition at 10 µM came out at 44%. In addition, the IC50 with MDA-MB-468 cells (Homo sapiens, MDA-MB-468, 24 h) is over 30 µM.

Regarding `COc1cc(OC)c2c(=O)[nH]c(-c3ccc(OCCOc4ccccc4C(N)=O)c(F)c3)nc2c1` [Compound 19h, 2-(2-(4-(5,7-Dimethoxy-4-oxo-3,4-dihydroquinazolin-2-yl)-2-fluorophenoxy)ethoxy)benzamide], on PARP1, the inhibition at 1 µM was 31% and the inhibition at 10 µM was found to be 65%. Besides, in experiment [1], the inhibition at 1 µM was 12% and the inhibition at 10 µM turned out to be 62%. Also, the IC50 with MDA-MB-468 cells (Homo sapiens, MDA-MB-468, 24 h) stood at 11.8 ± 3.4 µM.

As to `COc1cc(OC)c2c(=O)[nH]c(-c3ccc(OCCOn4nnc5ccccc54)c(F)c3)nc2c1` [Compound 19l, 2-(4-(2-((1H-Benzo[d][1,2,3]triazol-1-yl)oxy)ethoxy)-3-fluorophenyl)-5,7-dimethoxyquinazolin-4(3H)-one], at PARP1, the inhibition at 1 µM was 1% and the inhibition at 10 µM is 14%. For the same compound, in experiment [1], the inhibition at 1 µM is 29% and the inhibition at 10 µM was determined as 80%. Also, in the experiment with MDA-MB-468 cells (Homo sapiens, MDA-MB-468, 24 h), the half-inhibitory concentration (IC50) is 23.7 ± 3.3 µM.

For `COc1cc(OC)c2c(=O)[nH]c(-c3cc(OC)c(OCCOc4ccc5cn[nH]c5c4)c(OC)c3)nc2c1` [Compound 19n, 2-(4-(2-((1H-Indazol-6-yl)oxy)ethoxy)-3,5-dimethoxyphenyl)-5,7-dimethoxyquinazolin-4(3H)-one], at PARP1, the inhibition at 1 µM was 9% and the inhibition at 10 µM was 16%. Moreover, in experiment [1], the inhibition at 1 µM stood at 14% and the inhibition at 10 µM came out at 45%. Further, in the experiment on MDA-MB-468 cells (Homo sapiens, MDA-MB-468, 24 h), the IC50 is over 30 µM.

Take `COc1cc(OC)c2c(=O)[nH]c(-c3ccc(OCCOc4ccc5nc[nH]c(=O)c5c4)cc3)nc2c1` [Compound 19t, 5,7-Dimethoxy-2-(4-(2-((4-oxo-3,4-dihydroquinazolin-6-yl)oxy)ethoxy)phenyl)quinazolin-4(3H)-one]: at PARP1, the inhibition at 1 µM was 1% and the inhibition at 10 µM was 25%. Further, in experiment [1], the inhibition at 1 µM amounted to 9% and the inhibition at 10 µM was 67%. The IC50 in the experiment on MDA-MB-468 cells (Homo sapiens, MDA-MB-468, 24 h) is over 30 µM.

Consider `COc1cc(OC)c2c(=O)[nH]c(-c3cc(F)ccc3OCCOc3ccccc3C(N)=O)nc2c1` [Compound 19s, 2-(2-(2-(5,7-Dimethoxy-4-oxo-3,4-dihydroquinazolin-2-yl)-4-fluorophenoxy)ethoxy)benzamide], for which, on PARP1, the inhibition at 1 µM came out at 12% and the inhibition at 10 µM amounted to 65%. In experiment [1], the inhibition at 1 µM stood at 8% and the inhibition at 10 µM stood at 74%. For the same compound, the half-maximal inhibitory concentration (IC50) in the experiment on MDA-MB-468 cells (Homo sapiens, MDA-MB-468, 24 h) was found to be 8.7 ± 5.2 µM.

As for `COc1cc(OC)c2c(=O)[nH]c(-c3cc(OC)c(OCCOc4ccccc4C(N)=O)c(OC)c3)nc2c1` [Compound 19g, 2-(2-(4-(5,7-Dimethoxy-4-oxo-3,4-dihydroquinazolin-2-yl)-2,6-dimethoxyphenoxy)ethoxy)benzamide], at PARP1, the inhibition at 1 µM was 25% and the inhibition at 10 µM was found to be 70%. In experiment [1], the inhibition at 1 µM is 15% and the inhibition at 10 µM came to 72%. Moreover, the half-maximal inhibitory concentration (IC50) in the experiment on MDA-MB-468 cells (Homo sapiens, MDA-MB-468, 24 h) was 5.7 ± 2.1 µM.

Consider `COc1cc(OC)c2c(=O)[nH]c(-c3ccc(OCCOc4ccncc4C(N)=O)cc3)nc2c1` [Compound 19u, 4-(2-(4-(5,7-Dimethoxy-4-oxo-3,4-dihydroquinazolin-2-yl)phenoxy)ethoxy)nicotinamide], for which the figures for the inhibition at 1 µM (on PARP1; in experiment [1]) were 36% and 6%, respectively. Also, the inhibition at 10 µM stood at 81% at PARP1 and 77% in experiment [1]. The IC50 in the experiment with MDA-MB-468 cells (Homo sapiens, MDA-MB-468, 24 h) was determined as 6.7 ± 2.4 µM.

“2-(2-(2-((3a,7a-Dihydro-1H-benzo[d][1,2,3]triazol-1-yl)oxy)ethoxy)-4-methoxyphenyl)-5,7-dimethoxyquinazolin-4(3H)-one [Compound 19q]”: the entries for the “Inhibition rate PARP1” value on PARP1 (1 μmol/L) and at PARP1 (10 μmol/L) were 3% and 2%, respectively. For the same compound, the “Inhibition rate BRD4” value in experiment [1] (1 μmol/L) is given as 11%; in experiment [1] (10 μmol/L), 80%. Moreover, the IC50 in the experiment on MDA-MB-468 cells (setting [2]) was 24.2 ± 2.2 µM.

With `COc1cc(OC)c2c(=O)[nH]c(-c3cc(Cl)ccc3OCCCCCOc3ccccc3C(N)=O)nc2c1` [Compound 19e, 2-((5-(4-Chloro-2-(5,7-dimethoxy-4-oxo-3,4-dihydroquinazolin-2-yl)phenoxy)pentyl)oxy)benzamide], on PARP1, the inhibition at 1 µM was 18% and the inhibition at 10 µM was 71%. Moreover, in experiment [1], the inhibition at 1 µM turned out to be 4% and the inhibition at 10 µM was 55%. In the experiment on MDA-MB-468 cells (Homo sapiens, MDA-MB-468, 24 h), the concentration for half-maximal inhibition (IC50) was 15.3 ± 3.6 µM.

For the compound `COc1cc(OC)c2c(=O)[nH]c(-c3ccc(OCCOn4nnc5ccccc54)cc3)nc2c1` [Compound 19k, 2-(4-(2-((1H-Benzo[d][1,2,3]triazol-1-yl)oxy)ethoxy)phenyl)-5,7-dimethoxyquinazolin-4(3H)-one], the inhibition at 1 µM came to 7% on PARP1 and 13% in experiment [1]. Moreover, the inhibition at 10 µM at PARP1 worked out at 29%; in experiment [1], 83%. In the experiment on MDA-MB-468 cells (Homo sapiens, MDA-MB-468, 24 h), the 50% inhibitory concentration (IC50) came to 22.9 ± 2.4 µM.
